Results from US8592435B2, “Nitrogen-containing six-membered aromatic ring derivatives and pharmaceutical products containing the same” (Daiichi Sankyo Company, Limited, priority 2007, dated 2013).
Counter-ions that a name gives are not always drawn.

Tests used:
hippocampal neurons = test: Test Example 1: ability to promote axonal outgrowth; type: cell-based, Wistar rats; conditions: Hippocampal neuron, 216 h, % of control, rat hippocampal neurons, day 9, read-out: Promotion of axonal outgrowth (%); for activity at 3 µM: Compound Conc. = 3 μM; for activity at 0.3 µM: Compound Conc. = 0.3 μM
Protocol: According to the method of M. P. Mattson [M. P. Mattson, Brain Res. Rev., 13, 179, (1988)], the hippocampal region was isolated from 18-day embryos of female Wistar rats and the neurons were dispersed using the papain dissociation system. Hippocampal neuron were suspended in 5% Nu-serum+B27 supplement+Neurobasal medium at 5×10^4 cells/well/2 mL. 2 mL of the cell suspension were inoculated on a poly-D-lysine-coated 36φ dish and the neuron were incubated at 37° C. in a 5% CO2 incubator.
On day 3 of the incubation period, 1 mL of the culture medium was replaced with 1 mL of 5% Nu-serum+B27 supplement+Neurobasal medium containing 2 mM AraC. Each test compound was added to the culture on day 3 and day 7 of the incubation period. On day 9, cells were fixed in a 4% paraformaldehyde solution. The nerve axons of the fixed cells were stained with the Rabbit anti-growth-associated protein-43 polyclonal antibody and the stained cells were quantified using Kurabo neuron outgrowth-quantication software.
The ability (%) of each test compound to promote axonal outgrowth was calculated from the following equation: The ability to promote axonal outgrowth (%)=[(measurement with a compound of interest)/(measurement of control)]×100
Example Compounds shown in Table 25 were used as test compounds and were each added at concentrations of 3 μM and 0.3 μM.
Since bFGF gives a measurement of about 120 in this test, 120 is used as the threshold to determine whether a given compound has the ability to promote axonal outgrowth

[1] = system: mixture of human vascular endothelial cells and fibroblasts; test: Test Example 2: ability to promote angiogenesis (angiogenesis test kit KZ-1000); type: cell-based; conditions: Homo sapiens, 216 h, lumen length, % of control, day 9, read-out: Promotion of angiogenesis (%); for activity at 3 µM: Compound Conc. = 3 μM; for activity at 0.3 µM: Compound Conc. = 0.3 μM
Protocol: Using an angiogenesis test kit containing a mixture of human vascular endothelial cells and fibroblasts [KZ-1000; Kurabo], the ability of test compounds to promote angiogenesis was evaluated. Each test compound was added on days 1, 4, and 7 of the incubation period. On day 9, cells were immunostained with CD31 and photographed. Control cells were cultured under the same conditions, only without the addition of a test compound, and photographed.
The lumen length of the blood vessel was quantified from the obtained images using an angiogenesis-quantification software. The ability (%) of each test compound to promote angiogenesis was calculated from the following equation: The ability to promote angiogenesis (%)=[(measurement with a compound of interest)/(measurement of control)]×100
Example Compounds shown in Table 26 were used as test compounds.
Since bFGF gives a measurement of about 120 in this test, 120 is used as the threshold to determine whether a given compound has the ability to promote angiogenesis.

Compound: Cc1nc(NCC(=O)N(C)C2CCN(Cc3ccccc3)CC2)nc(C)c1N [Compound 63, 2-(5-amino-4,6-dimethylpyrimidine-2-ylamino)-N-(1-benzylpiperidine-4-yl)-N-methylacetamide]
- activity at 3 µM (hippocampal neurons): 186%

Compound: Cc1nc(OCC(=O)N(C)C2CCN(Cc3ccc(C(N)=O)cc3)CC2)nc(C)c1N [Compound 64, 4-((4-(2-(5-amino-4,6-dimethylpyrimidine-2-yloxy)-N-methylacetamide)piperidine-1-yl)methyl)benzamide]
- activity at 0.3 µM (hippocampal neurons): 120%
- activity at 3 µM [1]: 177%

Compound: Cc1nc(OCC(=O)N(C)C2CCN(Cc3ccc(C(F)(F)F)cc3)CC2)nc(C)c1N [Compound 69, 2-(5-amino-4,6-dimethylpyrimidine-2-yloxy)-N-methyl-N-(1-(4-(trifluoromethyl)benzyl)piperidine-4-yl)acetamide]
- activity at 0.3 µM (hippocampal neurons): 172%
- activity at 0.3 µM [1]: 161%

Compound: Cc1nc(OCC(=O)N(C)C2CCN(Cc3ccc(Cl)cc3)CC2)nc(C)c1N [Compound 72, 2-(5-amino-4,6-dimethylpyrimidine-2-yloxy)-N-(1-(4-chlorobenzyl)piperidine-4-yl)-N-methylacetamide]
- activity at 3 µM (hippocampal neurons): 141%
- activity at 3 µM [1]: 142%

Compound: Cc1nc(OCC(=O)N(C)C2CCN(CC(C)C)CC2)nc(C)c1N [Compound 73, 2-(5-amino-4,6-dimethylpyrimidine-2-yloxy)-N-(1-isobutylpiperidine-4-yl)-N-methylacetamide]
- activity at 3 µM (hippocampal neurons): 131%
- activity at 3 µM [1]: 139%

Compound: Cc1nc(OCC(=O)N(C)C2CCN(CCc3ccccc3)CC2)nc(C)c1N [Compound 75, 2-(5-amino-4,6-dimethylpyrimidine-2-yloxy)-N-methyl-N-(1-phenetylpiperidine-4-yl)acetamide]
- activity at 3 µM (hippocampal neurons): 125%
- activity at 3 µM [1]: 150%

Compound: Cc1nc(OCC(=O)N(C)C2CCN(C(=O)C3CCCCC3)CC2)nc(C)c1N [Compound 76, 2-(5-amino-4,6-dimethylpyrimidine-2-yloxy)-N-(1-(cyclohexanecarbonyl)piperidine-4-yl)-N-methylacetamide hydrochloride]
- activity at 3 µM (hippocampal neurons): 123%
- activity at 3 µM [1]: 149%

Compound: CC(=O)N1CCC(N(C)C(=O)COc2nc(C)c(N)c(C)n2)CC1 [Compound 77, N-(1-acetylpiperidine-4-yl)-2-(5-amino-4,6-dimethylpyrimidine-2-yloxy)-N-methylacetamide hydrochloride]
- activity at 3 µM (hippocampal neurons): 135%
- activity at 3 µM [1]: 149%

Compound: Cc1nc(OCC(=O)N(C)C2CCN(S(=O)(=O)c3ccccc3)CC2)nc(C)c1N [Compound 78, 2-(5-amino-4,6-dimethylpyrimidine-2-yloxy)-N-methyl-N-(1-(phenylsulfonyl)piperidine-4-yl)acetamide]
- activity at 3 µM (hippocampal neurons): 130%
- activity at 3 µM [1]: 144%

Compound: Cc1nc(OCC(=O)N(C)C2CCN(C3CCCCC3)CC2)nc(C)c1N [Compound 79, 2-(5-amino-4,6-dimethylpyrimidine-2-yloxy)-N-(1-cyclohexylpiperidine-4-yl)-N-methylacetamide]
- activity at 3 µM (hippocampal neurons): 123%
- activity at 3 µM [1]: 133%

Compound: Cc1nc(OCC(=O)N(C)C2CCN(C(=O)N3CCCCC3)CC2)nc(C)c1N [Compound 80, 2-(5-amino-4,6-dimethylpyrimidine-2-yloxy)-N-methyl-N-(1-(piperidine-1-carbonyl)piperidine-4-yl)acetamide]
- activity at 3 µM (hippocampal neurons): 129%
- activity at 0.3 µM [1]: 116%

Compound: Cc1ccccc1CN1CCC(N(C)C(=O)COc2nc(C)c(N)c(C)n2)CC1 [Compound 81, 2-(5-amino-4,6-dimethylpyrimidine-2-yloxy)-N-methyl-N-(1-(2-methylbenzyl)piperidine-4-yl)acetamide]
- activity at 3 µM (hippocampal neurons): 115%
- activity at 3 µM [1]: 126%

Compound: Cc1nc(OCC(=O)N(C)C2CCN(c3ccccc3)CC2)nc(C)c1N [Compound 82, 2-(5-amino-4,6-dimethylpyrimidine-2-yloxy)-N-methyl-N-(1-phenylpiperidine-4-yl)acetamide]
- activity at 3 µM (hippocampal neurons): 154%
- activity at 3 µM [1]: 130%

Compound: COc1cccc(CN2CCC(N(C)C(=O)COc3nc(C)c(N)c(C)n3)CC2)c1 [Compound 88, 2-(5-amino-4,6-dimethylpyrimidine-2-yloxy)-N-(1-(3-methoxybenzyl)piperidine-4-yl)-N-methylacetamide hydrochloride]
- activity at 0.3 µM (hippocampal neurons): 142%
- activity at 3 µM [1]: 122%

Compound: Cc1nc(OCC(=O)N(C)C2CCN(Cc3ccc(-c4ccccc4)cc3)CC2)nc(C)c1N [Compound 93, 2-(5-amino-4,6-dimethylpyrimidine-2-yloxy)-N-(1-(biphenyl-4-ylmethyl)piperidine-4-yl)-N-methylacetamide hydrochloride]
- activity at 3 µM (hippocampal neurons): 143%
- activity at 3 µM [1]: 138%

Compound: Cc1nc(OCC(=O)N(C)C2CCNCC2)nc(C)c1N [Compound 94, 2-(5-amino-4,6-dimethylpyrimidine-2-yloxy)-N-methyl-N-(piperidine-4-yl)acetamide]
- activity at 3 µM (hippocampal neurons): 122%

Compound: Cc1nc(OCC(=O)NC2CCN(CC3CC3)CC2)nc(C)c1N [Compound 101, 2-(5-amino-4,6-dimethylpyrimidine-2-yloxy)-N-(1-(cyclopropylmethyl)piperidine-4-yl)acetamide]
- activity at 3 µM (hippocampal neurons): 193%

Compound: CC(C)c1nc(OCC(=O)N(C)C2CCN(Cc3ccccc3)CC2)nc(C(C)C)c1N [Compound 104, 2-(5-amino-4,6-diisopropylpyrimidine-2-yloxy)-N-(1-benzylpiperidine-4-yl)-N-methylacetamide]
- activity at 0.3 µM (hippocampal neurons): 134%

Compound: Cc1cnc(Cl)nc1OC(C)(C)C(=O)N(C)C1CCN(Cc2ccccc2)CC1 [Compound 112, N-(1-benzylpiperidine-4-yl)-2-(2-chloro-5-methylpyrimidine-4-yloxy)-N,2-dimethylpropanamide maleate]
- activity at 3 µM (hippocampal neurons): 126%

Compound: Cc1nc(N)nc(C)c1OCC(=O)N(C)C1CCN(Cc2ccccc2)CC1 [Compound 113, 2-(2-amino-4,6-dimethylpyrimidine-5-yloxy)-N-(1-benzylpiperidine-4-yl)-N-methylacetamide]
- activity at 3 µM (hippocampal neurons): 144%

Compound: CN(C(=O)COc1cncc(Cl)c1)C1CCN(Cc2ccccc2)CC1 [Compound 125, N-(1-benzylpiperidine-4-yl)-2-(5-chloropyridine-3-yloxy)-N-methylacetamide hydrochloride]
- activity at 0.3 µM (hippocampal neurons): 173%

Compound: CN(C(=O)COc1cncc(Cl)c1)C1CCN(CC2CC2)CC1 [Compound 126, 2-(5-chloropyridine-3-yloxy)-N-(1-(cyclopropylmethyl)piperidine-4-yl)-N-methylacetamide hydrochloride]
- activity at 3 µM (hippocampal neurons): 167%

Compound: CN(C(=O)COc1cncc(Cl)n1)C1CCN(Cc2ccccc2)CC1 [Compound 129, N-(1-benzylpiperidine-4-yl)-2-(6-chloropyrazine-2-yloxy)-N-methylacetamide hydrochloride]
- activity at 3 µM (hippocampal neurons): 147%

Compound: O=C(COc1ccc(Cl)nn1)N(C1CC1)C1CCN(Cc2ccccc2)CC1 [Compound 138, N-(1-benzylpiperidine-4-yl)-2-(6-chloropyridazine-3-yloxy)-N-cyclopropylacetamide]
- activity at 3 µM (hippocampal neurons): 151%

Compound: CN(C(=O)CNc1c(Cl)cnnc1Cl)C1CCN(Cc2ccccc2)CC1 [Compound 139, N-(1-benzylpiperidine-4-yl)-2-(3,5-dichloropyridazine-4-ylamino)-N-methylacetamide]
- activity at 3 µM (hippocampal neurons): 143%

Compound: COc1cnnc(Cl)c1NCC(=O)N(C)C1CCN(Cc2ccccc2)CC1 [Compound 140, N-(1-benzylpiperidine-4-yl)-2-(3-chloro-5-methoxypyridazine-4-ylamino)-N-methylacetamide]
- activity at 0.3 µM (hippocampal neurons): 128%
